The text below walks through data of US11584714B2 (priority 2018, dated 2023).

Usually Ki stands for the dissociation constant of the complex between target and ligand, obtained from inhibition or displacement.

Holding throughout (format): biochemical
In one assay the target is MASP-2 (CCP1-CCP2-SP) (Homo sapiens (Human), UniProt O00187). In words: biochemical.
The target in a further assay is human α-thrombin (Homo sapiens (Human), UniProt P00734). The assay is described as follows: Enzymatic assay for thrombin (Boc-VPR-AMC substrate).
A further assay deals with mMASP-2 (Mus musculus (Mouse), UniProt Q91WP0). In words: Enzymatic inhibition of mMASP-2.
Where [1] appears, read: selectivity for MASP-2 inhibition versus thrombin.
[2] abbreviates: MASP-2 inhibition versus thrombin.

Structures can show the parent of a compound that is named as a salt. Where two headings read alike, the source gives them in different places.

Chain of mMASP-2 (Q91WP0 20-685): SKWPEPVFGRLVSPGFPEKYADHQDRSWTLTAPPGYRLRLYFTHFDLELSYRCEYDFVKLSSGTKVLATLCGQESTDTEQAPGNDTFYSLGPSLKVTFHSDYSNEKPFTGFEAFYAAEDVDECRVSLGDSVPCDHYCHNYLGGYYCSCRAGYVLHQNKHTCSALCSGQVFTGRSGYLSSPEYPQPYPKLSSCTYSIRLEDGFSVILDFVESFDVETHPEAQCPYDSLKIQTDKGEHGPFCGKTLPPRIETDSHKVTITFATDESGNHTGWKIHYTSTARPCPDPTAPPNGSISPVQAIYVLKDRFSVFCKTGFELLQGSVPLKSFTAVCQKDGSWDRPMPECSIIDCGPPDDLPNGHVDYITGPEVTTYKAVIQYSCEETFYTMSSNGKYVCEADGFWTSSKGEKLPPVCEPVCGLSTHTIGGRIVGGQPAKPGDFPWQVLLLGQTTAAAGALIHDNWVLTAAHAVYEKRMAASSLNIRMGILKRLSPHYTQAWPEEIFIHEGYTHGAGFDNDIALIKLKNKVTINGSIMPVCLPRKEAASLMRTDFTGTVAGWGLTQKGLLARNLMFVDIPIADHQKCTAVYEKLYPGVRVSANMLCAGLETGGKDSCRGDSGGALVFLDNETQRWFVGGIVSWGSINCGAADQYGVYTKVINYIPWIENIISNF
Chain of MASP-2 (CCP1-CCP2-SP) (O00187 445-686): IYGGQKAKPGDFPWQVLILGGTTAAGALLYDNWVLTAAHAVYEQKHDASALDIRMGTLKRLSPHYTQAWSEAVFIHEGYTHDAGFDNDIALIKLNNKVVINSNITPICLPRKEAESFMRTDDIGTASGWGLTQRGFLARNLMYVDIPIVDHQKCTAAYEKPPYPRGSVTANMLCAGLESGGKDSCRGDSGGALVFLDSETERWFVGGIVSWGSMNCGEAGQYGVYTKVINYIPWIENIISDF

On to `C[C@H](NC(=O)[C@H]1C[C@H](Cc2ccccc2)CN1)C(=O)NCc1ccc(C(=N)N)cc1` [compound 1306, (2R,4S)-4-Benzyl-N-((S)-1-((4-carbamimidoylbenzyl)amino)-1-oxopropan-2-yl)pyrrolidine-2-carboxamide Dihydrochloride], for which the inhibition constant (Ki) at MASP-2 (CCP1-CCP2-SP) (read-out: MASP-2 Ki) was less than 500 nM; at human α-thrombin (read-out: Thrombin Ki), less than 0.5 µM; at mMASP-2 (read-out: mMASP-2 Ki) it was less than 500 nM. Besides, at MASP-2 (CCP1-CCP2-SP) (setting [1]), the “MASP-2 vs. thrombin selectivity” value is reported as “* (≥1.0 to <5.0-fold)”.
Take `Cc1nc(N)ccc1CNC(=O)[C@H](C)NC(=O)[C@@H](CCc1ccccc1)NCCCc1cccc(O)c1` [compound 1319, (R)—N—((S)-1-(((6-Amino-2-methylpyridin-3-yl)methyl)amino)-1-oxopropan-2-yl)-2-((3-(3-hydroxyphenyl)propyl)amino)-4-phenylbutanamide Dihydrochloride salt]: the Ki at MASP-2 (CCP1-CCP2-SP) (read-out: MASP-2 Ki) is less than 500 nM; at human α-thrombin (Thrombin Ki (μM)), 2.5 to 10 µM; at mMASP-2 (read-out: mMASP-2 Ki), 10000 to 25000 nM. Further, the “MASP-2 vs. thrombin selectivity” value at MASP-2 (CCP1-CCP2-SP) (setting [1]) is given as “** (≥5.0 to <25-fold)”.
Take `Cc1cc(Cl)cc(CNC(=O)[C@H](C)NC(=O)[C@H]2C[C@H](Cc3ccc(Br)cc3)CN2)c1O` [compound 1374, (2R,4S)-4-(4-bromobenzyl)-N-((S)-1-((5-chloro-2-hydroxy-3-methylbenzyl)amino)-1-oxopropan-2-yl)pyrrolidine-2-carboxamide Hydrochloride]: the values for the inhibition constant (Ki) on MASP-2 (CCP1-CCP2-SP) (read-out: MASP-2 Ki), on human α-thrombin (read-out: Thrombin Ki) and on mMASP-2 (read-out: mMASP-2 Ki) were less than 500 nM, greater than 25 µM and less than 500 nM, respectively.
Regarding `C[C@H](NC(=O)[C@@H](CCc1ccccc1)NCCc1ccc(O)cc1)C(=O)NCc1ccc(C(=N)N)cc1` [compound 1327, (R)—N—((S)-1-((4-Carbamimidoylbenzyl)amino)-1-oxopropan-2-yl)-2-((4-hydroxyphenethyl)amino)-4-phenylbutanamide dihydrochloride], the values for the Ki at MASP-2 (CCP1-CCP2-SP) (read-out: MASP-2 Ki), on human α-thrombin (read-out: Thrombin Ki) and at mMASP-2 (read-out: mMASP-2 Ki) were less than 500 nM, less than 0.5 µM and less than 500 nM, respectively. The “MASP-2 vs. thrombin selectivity” value at MASP-2 (CCP1-CCP2-SP) (setting [1]) is on record as “*** (≥25 to <100-fold)”.
Consider `N=C(N)c1ccc(CNC(=O)[C@H](Cc2ccc(O)cc2)NC(=O)[C@H](N)CCc2ccccc2)cc1` [compound 1326, (R)-2-Amino-N—((S)-1-((4-carbamimidoylbenzyl)amino)-3-(4-hydroxyphenyl)-1-oxopropan-2-yl)-4-phenylbutanamide Di-trifluoroacetate salt], for which the inhibition constant Ki is less than 500 nM at MASP-2 (CCP1-CCP2-SP) (read-out: MASP-2 Ki), 10 to 25 µM at human α-thrombin (Thrombin Ki (μM)) and less than 500 nM on mMASP-2 (read-out: mMASP-2 Ki). For the same compound, the “MASP-2 vs. thrombin selectivity” value at MASP-2 (CCP1-CCP2-SP) (setting [1]) is reported as “*** (≥25 to <100-fold)”.
Turning to `C[C@H](NC(=O)[C@H]1C[C@H](c2ccccc2)CN1)C(=O)NCc1cc2ccncc2[nH]1` [compound 1495, (2R,4R)—N—((S)-1-(((1H-Pyrrolo[2,3-c]pyridin-2-yl)methyl)amino)-1-oxopropan-2-yl)-4-phenylpyrrolidine-2-carboxamide Di-trifluoroacetate salt], the Ki at MASP-2 (CCP1-CCP2-SP) (read-out: MASP-2 Ki) is 2500 to 10000 nM; at human α-thrombin (read-out: Thrombin Ki) it was greater than 25 µM; at mMASP-2 it was 500 to 2500 nM. At MASP-2 (CCP1-CCP2-SP) (setting [1]), the “MASP-2 vs. thrombin selectivity” value is “** (≥5.0 to <25-fold)”.
For `Cc1nc(N)ccc1CNC(=O)[C@H](C)NC(=O)[C@H]1C[C@H](Cc2ccc(Cc3ccccc3)cc2)CN1` [compound 1427, (2R,4S)—N—((S)-1-(((6-Amino-2-methylpyridin-3-yl)methyl)amino)-1-oxopropan-2-yl)-4-(4-benzylbenzyl)pyrrolidine-2-carboxamide di-trifluoroacetate salt], the Ki on MASP-2 (CCP1-CCP2-SP) (read-out: MASP-2 Ki) was less than 500 nM; at human α-thrombin (read-out: Thrombin Ki), greater than 25 µM; on mMASP-2 (read-out: mMASP-2 Ki), less than 500 nM. For the same compound, the “MASP-2 vs. thrombin selectivity” value on MASP-2 (CCP1-CCP2-SP) (setting [1]) is given as “**** (≥100-fold)”.
Take `COc1ccccc1CC[C@@H](N)C(=O)N[C@@H](C)C(=O)NCc1ccc(C(=N)N)cc1` [compound 1074]: on MASP-2 (CCP1-CCP2-SP) (setting [2]), the “MASP-2 vs. thrombin selectivity” value is listed as “** (5.0 to 25-fold)”. The inhibition constant (Ki) at MASP-2 (CCP1-CCP2-SP) (read-out: MASP-2 Ki) is less than 500 nM; on human α-thrombin (read-out: Thrombin Ki), less than 0.5 µM; on mMASP-2 (read-out: mMASP-2 Ki), less than 500 nM.
For `Cc1cccc([C@H]2CN[C@@H](C(=O)N[C@@H](C)C(=O)NCc3ccc(C(=N)N)cc3)C2)c1` [compound 1247, (2R,4S)—N—((S)-1-((4-Carbamimidoylbenzyl)amino)-1-oxopropan-2-yl)-4-(m-tolyl)pyrrolidine-2-carboxamide], the inhibition constant Ki is less than 500 nM on MASP-2 (CCP1-CCP2-SP) (read-out: MASP-2 Ki), 0.5 to 2.5 µM at human α-thrombin (Thrombin Ki (μM)) and less than 500 nM on mMASP-2 (read-out: mMASP-2 Ki). The “MASP-2 vs. thrombin selectivity” value at MASP-2 (CCP1-CCP2-SP) (setting [1]) is reported as “*** (≥25 to <100-fold)”.
Regarding `Cc1nc(N)ccc1CNC(=O)[C@H](C)NC(=O)[C@H]1C[C@H](Cc2cccc(-c3ccccc3)c2)CN1` [compound 1406, (2R,4S)-4-([1,1′-Biphenyl]-3-ylmethyl)-N-((S)-1-(((6-amino-2-methylpyridin-3-yl)methyl)amino)-1-oxopropan-2-yl)pyrrolidine-2-carboxamide Dihydrochloric acid], the Ki on MASP-2 (CCP1-CCP2-SP) (read-out: MASP-2 Ki) was less than 500 nM; on human α-thrombin (Thrombin Ki (μM)), 2.5 to 10 µM; on mMASP-2 (read-out: mMASP-2 Ki), less than 500 nM. The “MASP-2 vs. thrombin selectivity” value on MASP-2 (CCP1-CCP2-SP) (setting [1]) is listed as “**** (≥100-fold)”.
As for `C[C@H](NC(=O)[C@@H](CCc1ccccc1)NCCCc1cccc(O)c1)C(=O)NCc1ccc(C(=N)N)cc1` [compound 1312, (R)—N—((S)-1-((4-Carbamimidoylbenzyl)amino)-1-oxopropan-2-yl)-2-((3-(3-hydroxyphenyl)propyl)amino)-4-phenylbutanamide Di-trifluoroacetate salt], the inhibition constant Ki is less than 500 nM on MASP-2 (CCP1-CCP2-SP) (read-out: MASP-2 Ki), less than 0.5 µM on human α-thrombin (read-out: Thrombin Ki) and less than 500 nM on mMASP-2 (read-out: mMASP-2 Ki). Moreover, the “MASP-2 vs. thrombin selectivity” value at MASP-2 (CCP1-CCP2-SP) (setting [1]) is on record as “* (≥1.0 to <5.0-fold)”.
`C[C@H](NC(=O)[C@H]1C[C@H](c2ccccc2)CN1)C(=O)NCc1ccc2nccn2c1` [compound 1434, (2R,4R)—N—((S)-1-((Imidazo[1,2-a]pyridin-6-ylmethyl)amino)-1-oxopropan-2-yl)-4-phenylpyrrolidine-2-carboxamide Dihydrochloride]: the Ki was 10000 to 25000 nM at MASP-2 (CCP1-CCP2-SP), greater than 25 µM at human α-thrombin (read-out: Thrombin Ki) and 10000 to 25000 nM on mMASP-2 (read-out: mMASP-2 Ki).
Regarding `Cc1nc(N)ccc1CNC(=O)[C@H](C)NC(=O)c1cc(Cc2ccccc2)c[nH]1` [compound 1467, (S)—N-(1-(((6-Amino-2-methylpyridin-3-yl)methyl)amino)-1-oxopropan-2-yl)-4-benzyl-1H-pyrrole-2-carboxamide trifluoroacetic acid], the results for the Ki on MASP-2 (CCP1-CCP2-SP) (read-out: MASP-2 Ki), at human α-thrombin (read-out: Thrombin Ki) and on mMASP-2 (read-out: mMASP-2 Ki) were less than 500 nM, greater than 25 µM and 500 to 2500 nM, respectively. Also, the “MASP-2 vs. thrombin selectivity” value at MASP-2 (CCP1-CCP2-SP) (setting [1]) was “**** (≥100-fold)”.
In the case of `C[C@H](NC(=O)[C@@H](CCc1ccccc1)NC1CCC1)C(=O)NCc1ccc(C(=N)N)cc1` [compound 1108], the “MASP-2 vs. thrombin selectivity” value at MASP-2 (CCP1-CCP2-SP) (setting [2]) was “* (1.0 to 5.0-fold)”. Moreover, the inhibition constant Ki on MASP-2 (CCP1-CCP2-SP) (read-out: MASP-2 Ki) is less than 500 nM; on human α-thrombin (read-out: Thrombin Ki) it was less than 0.5 µM; at mMASP-2 (read-out: mMASP-2 Ki) it was less than 500 nM.
`C[C@H](NC(=O)[C@H]1C[C@H](c2ccccc2)CN1)C(=O)NCc1cnc2[nH]ccc2c1` [compound 1311, (2R,4R)—N—((S)-1-(((1H-Pyrrolo[2,3-b]pyridin-5-yl)methyl)amino)-1-oxopropan-2-yl)-4-phenylpyrrolidine-2-carboxamide Dihydrochloride]: the Ki is 2500 to 10000 nM on MASP-2 (CCP1-CCP2-SP), greater than 25 µM on human α-thrombin (read-out: Thrombin Ki) and 2500 to 10000 nM on mMASP-2 (read-out: mMASP-2 Ki). The “MASP-2 vs. thrombin selectivity” value at MASP-2 (CCP1-CCP2-SP) (setting [1]) is listed as “* (≥1.0 to <5.0-fold)”.
